Test results from PMC10726451, “MAIP: An Open-Source Tool to Enrich High-Throughput Screening Output and Identify Novel, Druglike Molecules with Antimalarial Activity” (ACS Medicinal Chemistry Letters, 2023).
Values after ≈ are worked out from the molar mass of the structure shown. Read-outs that look alike come from different tables or passages of the source.

Tests used:
in vitro = type: cell-based; settings: human
Experimental: Here, this state of the art screening platform was applied to CQL (Figure 3). During solubilization and reformatting activities, 40 samples were identified with solubility issues and removed from the screening set, thereby leaving 5810 compounds (4623 scored + 1187 randomly selected). A primary screen was conducted at a single concentration (2 μM) against P. falciparum NF54 (nanoGlo readout over 72 h incubation). […] These compounds were then tested in five-point dose–response curve (DRC) assays, each of which provides key information to decide which compound(s) to progress (highlighted in blue). Five different assays were carried out, including three parasite growth assays over 72 h of incubation (P. falciparum NF54 in both nanoGlo and pLDH read-outs and P. falciparum Dd2 in pLDH read-out), one parasite growth assay over 12 h of incubation (P. falciparum NF54 in nanoGlo read-out) in order to evaluate the speed of action, and a cytotoxicity assay against human HepG2 cells over 72 h of incubation. Out of 36 screening active compounds (36 + 0) fulfilling all of the ideal criteria, 12 were deemed attractive in terms of chemical novelty and diversity for further progression and evaluation. This set of compounds was further complemented with others that passed at least three of the five DRC criteria, together with assessments of chemical novelty and diversity, which led to 33 selected compounds. Twenty-two compounds (those still available from commercial suppliers) were repurchased, and the compound efficacy was retested against P. falciparum 3D7 (pLDH readout over 72 h incubation) and human HepG2 cells over 72 h of incubation at a different testing center. […]
(§1) The Medicines for Malaria Venture (MMV)’s P. falciparum asexual blood stage phenotypic screening platform was used to experimentally validate the selected compounds. Full details can be found in a recent publication.5 Briefly, the HTS cascade relies on a newly developed P. falciparum strain genetically modified to express a nano-luciferase reporter gene driven by the ef1α promoter. In addition to providing similar results compared to a fluorescence-based assay, this reporter provided a robust read-out for parasite replication with incubation times as short […]
(§2) The screening platform consists of a primary screening where the compounds were tested at a single concentration (2 μM) against the chloroquine and pyrimethamine sensitive P. falciparum strain NF54 using a nanoGlo detection reagent. Compounds that exceeded a Z-score threshold of -4 were screened a second time in this assay format in addition to an orthogonal assay (P. falciparum NF54, pLDH). Only the compounds inhibiting parasite growth by more than 30% were then tested in five dose-response curve (DRC) assays. These assays were designed to evaluate different aspects any future antimalarial drug has to fulfil: - sensitivity (P. falciparum NF54, nanoGlo and P. falciparum NF54, pLDH); - efficacy against resistant parasite strains (P. falciparum Dd2, pLDH); - low cellular toxicity (HepG2 cells). In addition, to evaluate their speed of action, […]
versus 72 hours for the assays previously mentioned. […]
Compounds still commercially available for re-stock were purchased and retested in a different laboratory against P. falciparum 3D7 with a pLDF read-out, […]
(§3) and in human HepG2 cells. […]
(§4) in the parasite growth inhibition assay, and higher than 10 μM in the cell viability assay obtained in two distinct locations. […]

[1] = Metabolic stability in cryopreserved rat hepatocytes; type: in vitro ADME
Experimental: Metabolic stability using cryopreserved rat hepatocytes
A solution of the test compound in Krebs-Henseleit buffer solution (1 µM) was incubated in […]
CO2, 95% relative humidity). The reaction was terminated with the addition of ice-cold acetonitrile containing system suitability standard at designated time points. The sample was centrifuged (4200 rpm) for 20 minutes at 20 °C and the supernatant was half diluted in water and then analysed by means of LC-MS/MS. Compound clearance (CLint,app) was calculated using standard methodology. The experiment was carried out in duplicate. Diltiazem, 7-ethoxy coumarin, propranolol and midazolam were used as reference standards. […]

[2] = Solubility in PBS pH 7.4, miniaturised shake flask; type: physicochemical; settings: kinetic from dmso stock, 25 °C
Experimental: Solubility in phosphate buffered saline (PBS) pH7.4
The solubility assay was performed using a miniaturised shake flask method. A solution of phosphate buffered saline (PBS) and the test compound (200 µM) was incubated at 25 °C with constant shaking (600 rpm) for 2 hours. The samples were filtered using a multiscreen solubility filter plate. The filtrate was half diluted in acetonitrile. A five-point linearity curve was prepared in PBS:Acetonitrile (1:1, v/v) at 200, 150, 75, 25 and 2.5 µM. Blank, linearity and test samples (n = 2) were transferred to a UV readable plate and the plate was scanned for absorbance. Best […]
fit calibration curves were constructed using the calibration standards and used to determine the test sample solubility. The experiment was carried out in duplicate. Diethylstilbestrol, haloperidol and sodium diclofenac were used as reference standards. […]

[3] = Metabolic stability in human liver microsomes; type: in vitro ADME; settings: 1 µM compound, 0.5 mg/mL pooled human liver microsomes
Experimental: Metabolic stability study using human liver microsomes
A solution of the test compounds in phosphate buffer solution (1 µM) was incubated in pooled human liver microsomes (0.5 mg/mL) for 0, 5, 20, 30, 45 and 60 minutes at 37 °C in the presence and absence of NADPH regeneration system. The reaction was terminated with the addition of ice-cold acetonitrile containing system suitability standard at designated time points. The sample was centrifuged (4200 rpm) for 20 minutes at 20 °C and the supernatant was half diluted in water and then analysed by means of LC-MS/MS. Compound clearance (CLint,app) was […]
calculated using standard methodology. The experiment was carried out in duplicate.
Verapamil, diltiazem, phenacetin and imipramine were used as reference standards. […]

P. falciparum Dd2 = P. falciparum Dd2 parasite growth, pLDH readout, 72 h incubation; type: cell-based; settings: Plasmodium falciparum, read-out: Dd2 LDH (72 h) IC50
Experimental: Here, this state of the art screening platform was applied to CQL (Figure 3). During solubilization and reformatting activities, 40 samples were identified with solubility issues and removed from the screening set, thereby leaving 5810 compounds (4623 scored + 1187 randomly selected). A primary screen was conducted at a single concentration (2 μM) against P. falciparum NF54 (nanoGlo readout over 72 h incubation). […] These compounds were then tested in five-point dose–response curve (DRC) assays, each of which provides key information to decide which compound(s) to progress (highlighted in blue). Five different assays were carried out, including three parasite growth assays over 72 h of incubation (P. falciparum NF54 in both nanoGlo and pLDH read-outs and P. falciparum Dd2 in pLDH read-out), one parasite growth assay over 12 h of incubation (P. falciparum NF54 in nanoGlo read-out) in order to evaluate the speed of action, and a cytotoxicity assay against human HepG2 cells over 72 h of incubation. Out of 36 screening active compounds (36 + 0) fulfilling all of the ideal criteria, 12 were deemed attractive in terms of chemical novelty and diversity for further progression and evaluation. This set of compounds was further complemented with others that passed at least three of the five DRC criteria, together with assessments of chemical novelty and diversity, which led to 33 selected compounds. Twenty-two compounds (those still available from commercial suppliers) were repurchased, and the compound efficacy was retested against P. falciparum 3D7 (pLDH readout over 72 h incubation) and human HepG2 cells over 72 h of incubation at a different testing center.
No unexpected or unusually high safety hazards were encountered.
as §1, §2

[4] = LogD at pH 7.4, miniaturised shake flask; type: physicochemical
Experimental: The LogD pH7.4 assay was performed using a miniaturised shake flask method. A solution of a pre-saturated mixture of 1-octanol and PBS (1:1, v/v) and the test compound (75 µM) was incubated at 25 °C with constant shaking (850 rpm) for 2 hours. After incubation the organic and aqueous phases were separated, and samples of each phase transferred to plate for dilution. The organic phase was diluted to 1000-fold and the aqueous phase was diluted 20-fold. The samples were quantitated using LC-MS/MS. The experiment was carried out in duplicate. Propranolol, amitriptyline and midazolam were used as reference standards. […]

P. falciparum 3D7 [5] = assay: P. falciparum 3D7 parasite growth, pLDH readout, 72 h incubation; type: cell-based; settings: Plasmodium falciparum, P. falciparum 3D7, pLDH readout, read-out: 3D7 LDH (72 h) IC50
Experimental: Afterwards, the remaining compounds were evaluated for their attractiveness derived from the chemical diversity relative to existing antimalarial drugs (Table S2 / Supplementary file SMILES-Table S2.xls) and calculated using Tanimoto similarity based on 2D molecular fingerprints. At this stage the list of remaining compounds was expanded with additional compounds that fulfilled at least 3 of the DRC assays criteria. Compounds still commercially available for re-stock were purchased and retested in a different laboratory against P. falciparum 3D7 with a pLDF read-out, […]
as §3, §4

P. falciparum 3D7 [6] = system: P. falciparum 3D7; design: method as in ChEMBL (version 32), ref 29; settings: ref ChEMBL (version 32), cited from earlier work
[7] = pooled cryopreserved rat hepatocytes, 1 µM compound, pooled rat hepatocytes 1×10^6 cells/mL, read-out: rat hepatocytes CLint
[8] = phosphate buffered saline, aqueous buffer, PBS pH 7.4, test compound 200 µM, 2 hours, read-out: kinetic solubility
[9] = 1-octanol/PBS (1:1, v/v), pre-saturated, 1-octanol/PBS, pH 7.4, 25 °C, read-out: LogD pH 7.4
[10] = phosphate buffered saline, aqueous buffer, PBS pH 7.4, test compound 200 µM, 2 hours
[11] = read-out: Antimalarial activity: XC50

SMILES	IC50 at 72 h (in vitro)	hepatocyte CLint at 1.5 h, 1 µM [1, 7]	solubility kinetic at 2 h [2, 8]	microsomal CLint at 1 h, 1 µM [3]	IC50 (P. falciparum Dd2; DD2, 72 h)	logD at 2 h, 75 µM [4, 9]	IC50 (P. falciparum 3D7 [5])	IC50 (P. falciparum 3D7 [6]; read-out: Antimalarial activity: inhibition)	solubility kinetic at 2 h, 200 µM [2, 10]	IC50 (P. falciparum 3D7 [6]; [11])	hepatocyte CLint at 1.5 h, 1 µM ([1]; rat, hepatocytes)	solubility kinetic at 2 h ([2]; pH 7.4, aqueous buffer)	IC50 (P. falciparum Dd2; P. falciparum Dd2 (drug-resistant), pLDH readout, 72 h)	logD at 2 h, 75 µM ([4]; pH 7.4)	logD ([4]; 1-octanol/PBS (1:1, v/v), pre-saturated, 1-octanol/PBS, pH 7.4, 25 °C)
CN1CCC(Oc2ccc(NC(=O)c3cn4ccnc4s3)cn2)CC1 [MMV1797331]	21.6 µM	1.9 µL/min/1e6 cells	≥ 200 µM	3.7 µL/min/mg	2 µM	1	1.9 µM								
Oc1cc(CN2CCC(O)(Cn3ccnc3)CC2)nc2c(Cl)cccc12 [CHEMBL3476473]								0.882 µM							
COc1ccc(-c2cncc(C(=O)NCC3CCN(CCN(C)C)CC3)c2)cc1 [MMV1799348]	> 25 µM	1.2 µL/min/1e6 cells		3.5 µL/min/mg	2.7 µM	1.2	1.1 µM		198 µM (≈ 78.5 µg/mL)						
CC1CCN(Cc2cccc(C(=O)NCc3ccc(F)c(-c4ccc(CN5CCN[C@H](C)C5)cc4)c3)c2)CC1 [CHEMBL580242]										1.46 µM					
CC1(N2CCC2)CCC(NCC2CCN(Cc3ccccc3)C2)CC1 (centres unmarked) [MMV1798925]	19.1 µM	7.2 µL/min/1e6 cells		3.5 µL/min/mg	1.5 µM	0.3	1.1 µM		173 µM (≈ 59.1 µg/mL)						
Cc1c(CN2CCC(O)(Cn3ccnc3)CC2)[nH]c2c(Cl)cccc12 [MMV1801316]	> 25 µM	2.7 µL/min/1e6 cells		24.1 µL/min/mg	3.6 µM	2.8	1.5 µM		86 µM (≈ 30.9 µg/mL)						
COc1c(C2CCN(CCN3CCC(CNC(=O)c4ccc(-c5ccc(C#N)cc5)cc4)CC3)CC2)ccc2c1CCCC2 [CHEMBL528171]										0.445 µM					
c1ccc(-c2ccnc(C3CCN(CC45CNCC4C5)CC3)n2)cc1 (centres unmarked) [MMV1797658]	22.1 µM	7.2 µL/min/1e6 cells	≥ 200 µM	3.5 µL/min/mg	1.5 µM	0.5	0.78 µM								
Cc1cnccc1N1CCCN(Cc2ccccc2OCCN2CCN(C)CC2)CC1 [MMV1802771]	20 µM	2.6 µL/min/1e6 cells		11 µL/min/mg	1.1 µM	1	0.81 µM		100 µM (≈ 42.4 µg/mL)						
CN1CCN(CCCCNC2CC3CCC(C2)N3Cc2ccccc2)CC1 (centres unmarked) [MMV1797951]	13.8 µM			8.3 µL/min/mg			1 µM				1.4 µL/min/1e6 cells	≥ 200 µM	0.98 µM	-0.2	
O=C(NC1CCN(CCOc2ccc(Cl)cc2)CC1)c1c[nH]c2ccncc2c1=O [MMV1798946]	> 25 µM	2 µL/min/1e6 cells		14 µL/min/mg	2 µM		0.75 µM		170 µM (≈ 72.6 µg/mL)						2.9
